The values below are quoted from earlier work in patent US11345964B2, “BCR-ABL truncation mutations” (Quest Diagnostics Investments LLC, priority 2009, dated 2022).

Molecules are shown by their SMILES. Structures can show the parent of a compound that is named as a salt. Where two headings read alike, the source gives them in different places.

The subject of this data set is patients with myeloproliferative diseases. To be noted: imatinib therapy.

Consider `Cc1ccc(NC(=O)c2ccc(CN3CCN(C)CC3)cc2)cc1Nc1nccc(-c2cccnc2)n1` [imatinib, imatinib mesylate], for which the “Primary resistance (failure to achieve any hematologic response) rate” value is reported as 9% (accelerated phase), 51% (blast phase) and 3% (chronic phase). In addition, the “Secondary resistance (hematologic recurrence) rate” value is, setting by setting: (accelerated phase) 32%; (blast phase) 41%; (chronic phase) 22%.
